Data reported in paper PMC7486940, “Pre-symptomatic Caspase-1 inhibitor delays cognitive decline in a mouse model of Alzheimer disease and aging” (Nature Communications, 2020).
pIC50: −log10 of the molar value.

Experiments:
GFAP = GFAP astrogliosis (western blot, immunostaining); format: in vivo, mouse
Procedure: (§1) VX-765 (Adooq Bioscience, Irvine, CA, USA) was dissolved 5 mg • ml^−1 in 20% cremophor in dH2O[60] (Sigma-Aldrich, ON, Canada) and administered IPWT and J20 mice received three injections per week of either 50 mg • kg^−1 VX-765 or 20% cremophor vehicle for 4 weeks between 2 and 3 months of age. Mice were longitudinally followed starting 4 weeks after the last injection [4-week washout (WO)], then every other month at 12- and 20-week WO (6 and 8 months of age, respectively). Intermediate 8- and 16-week WO periods were also looked at with a smaller number of mice. After each WO period, animals were randomly chosen, independent of behavioural performance, for sacrifice and assigned to either histological or biochemical analysis (Fig. 2a).
Mice for immunohistochemistry were isoflurane anesthetized and perfused with ice-cold 4% paraformaldehyde in 0.1 M PBS (Sigma-Aldrich). Brains were post-fixed overnight in 10% neutral-buffered formalin (ThermoFisher Scientific, ON, Canada) and transferred to 70% ethanol for paraffin embedding and sectioning at 4 μm. Tissue slides underwent heat-induced antigen retrieval with citrate or EDTA buffer. […]
Iba1-positive microglia were quantified using a modified version of an area-specific counting frame. […] Microglial activation level was determined based on morphological measurements[19],[41]. Aβ1-40 and GFAP immunostaining density was measured across four sections using ImageJ software (NIH, Bethesda, MD, USA). Quantification was blinded to treatment and genotype.
(§2) Twenty to sixty micrograms of protein or 16 μl of precipitated protein from culture medium were separated on SDS-PAGE or 4–12% NuPAGE Bis-Tris gels (Invitrogen, Carlsbad, CA, USA) with MES buffer (Invitrogen) and transferred onto PVDF membranes (Bio-Rad) according to the manufacturer’s instructions. […] Protein levels were normalized to β-actin and expressed as a percentage relative to the vehicle-treated WT group, except for APP which was compared to the vehicle-treated J20 group. […]

IDE and Nep = IDE and Nep mRNA and protein levels; format: in vivo, mouse; conditions: hippocampus
Procedure: as §1, §2

Aβ = Aβ immunostaining density and ELISA (RIPA- and FA-soluble); format: in vivo, mouse
Procedure: as §1
Mice for immunohistochemistry were isoflurane anesthetized and perfused with ice-cold 4% paraformaldehyde in 0.1 M PBS (Sigma-Aldrich). Brains were post-fixed overnight in 10% neutral-buffered formalin (ThermoFisher Scientific, ON, Canada) and transferred to 70% ethanol for paraffin embedding and sectioning at 4 μm. Tissue slides underwent heat-induced antigen retrieval with citrate or EDTA buffer. Immunostaining was performed using the Dako Autostainer Plus slide processor and EnVision Flex system (Dako, ON, Canada). Sections were peroxidase treated, blocked in Serum-Free Protein Block, and immunostained with the following antibodies: 1:2000 rabbit anti-Iba1 (Wako, VA, USA), 1:500 rat anti-CD68 (clone FA-11, Bio-Rad, Hercules, CA, USA), 1:8000 rabbit anti-GFAP (Dako) and 1:2000 rabbit anti-Aβ1-40 (F25276, laboratory developed). CD68 antibody required an additional rabbit anti-rat IgG/HRP secondary reagent (Dako) incubation. […] Sections were digitally scanned with MIRAX SCAN (Zeiss, ON, Canada) and used for subsequent analyses.
Iba1-positive microglia were quantified using a modified version of an area-specific counting frame. The number of Iba1-positive cells per mm^3 in the anterior CA1 region and cortex was estimated across four sections, spaced 60 μm apart. Microglial activation level was determined based on morphological measurements[19],[41]. Aβ1-40 and GFAP immunostaining density was measured across four sections using ImageJ software (NIH, Bethesda, MD, USA). Quantification was blinded to treatment and genotype.
ELISA samples were prepared in RIPA described above. RIPA-insoluble pellets were further extracted in 70% formic acid (FA) in dH2O. FA was evaporated in a speed vacuum, and the resulting pellet was solubilized in 200 mM Tris-HCl, pH 7.5. IL-1β and Aβ levels (which include Aβ38, Aβ40 and Aβ42) were measured using Meso Scale Discovery ELISA kits (Rockville, MD, USA). Standards and samples were prepared according to the manufacturer’s protocols and run in duplicate.

APP = APP expression and processing (real-time PCR, western blot) in J20 hippocampus; format: in vivo, mouse
Procedure: as §1
Mice for biochemical analyses were isoflurane anesthetized, sacrificed by cervical dislocation, and the hippocampus and cortex dissected out and immediately frozen on dry ice. Brain tissue was homogenized in radioimmunoprecipitation assay (RIPA) buffer (50 mM Tris-HCl pH: 7.4, 1% NP-40, 0.25% Na-deoxycholate, 150 mM NaCl, 1 mM EDTA, with protease inhibitors), and supernatants placed in Laemmli (5% 2-β mercaptoethanol with protease inhibitors).
as §2
RNA was extracted with Qiazol and purified using the miRNeasy mini kit (Qiagen, CA, USA). RNA quality and quantity were determined using a spectrophotometer (DS-11 FX+, DeNovix, DE, USA) and RNA was reverse transcribed using First Strand cDNA Synthesis Kit (Qiagen) following the manufacturer’s protocol. […]

Casp1 = tested on: Casp1; set-up: method as in PMID 30254377; conditions: in vitro Casp1; cited from earlier work
[1] = tested on: experimental allergic encephalitis multiple sclerosis mouse model; set-up: method as in PMID 29895691; conditions: cited from earlier work
Casp11 = tested on: Casp11; set-up: method as in Flores et al., Nature Communications 2018; conditions: ref Flores et al., Nature Communications 2018; cited from earlier work

## CCO[C@@H]1OC(=O)C[C@@H]1NC(=O)[C@@H]1CCCN1C(=O)[C@@H](NC(=O)c1ccc(N)c(Cl)c1)C(C)(C)C [VX-765, (S)-1-((S)-2-{[1-(4-amino-3-chloro-phenyl)-methanoyl]-amino}-3,3-dimethyl-butanoyl)-pyrrolidine-2-carboxylic acid ((2R,3S)-2-ethoxy-5-oxo-tetrahydro-furan-3-yl)-amide]
GFAP; J20
  delay of GFAP astrogliosis: 3 months
GFAP; J20 hippocampus and cortex
  immunopositive GFAP astrogliosis: prevented astrogliosis until 8- and 12-week WO in the hippocampus and cortex, respectively
GFAP; J20 hippocampus, 4- and 20-week WO
  hippocampal GFAP levels (western blot): normalized with VX-765 treatment only at 20-week WO
IDE and Nep
  Nep mRNA and protein levels: remained unchanged
IDE and Nep; WT vs vehicle- or VX-765-treated J20
  IDE mRNA or protein levels: did not change between WT and vehicle- or VX-765-treated J20 mice
Aβ; J20, 20-week WO
  FA-soluble Aβ42 levels, Aβ42/total Aβ ratio, cortical Aβ subtypes: did not affect hippocampal Aβ42 levels and Aβ42/total Aβ ratio, or any Aβ subtype in the cortex
Aβ; J20 hippocampus and cortex, vs vehicle
  Aβ staining density: significantly decreased Aβ staining density only in the cortex at 12-week WO
Aβ; J20 hippocampus or cortex, all WO periods, vehicle vs VX-765
  RIPA-soluble Aβ38, Aβ40, Aβ42 or total Aβ levels: no significant differences
Aβ; J20 hippocampus or cortex, any WO period
  formic acid (FA)-soluble total Aβ levels: did not differ between vehicle and VX-765 treatment
Aβ; J20 hippocampus, 20-week WO
  FA-soluble hippocampal Aβ38 and Aβ40 levels: increased FA-soluble hippocampal Aβ38 and Aβ40 levels at 20-week WO
  RIPA-soluble Aβ42/total Aβ ratio: significantly higher in vehicle- compared to VX-765-treated hippocampus in J20 mice at 20-week WO
APP; 4- and 20-week WO
  APP protein levels (anti-APP C-terminal antibody): not affected
APP; 4- or 20-week WO, vehicle vs VX-765
  βCTF and αCTF levels: no differences in βCTF and αCTF levels
APP; 4-, 12- or 20-week WO
  human APP mRNA levels: did not alter
Casp1
  pIC50: 8.43
[1]
  inflammasome-related gene expression, axonal injury, behaviour: reduce inflammasome-related gene expression, axonal injury, improve behaviour
Casp11
  IC50 for Casp11 compared to Casp1: over 100 fold
